This note sets out measurements from patent US11883423B2, “Nucleobase analogue derivatives and their applications” (BOARD OF REGENTS, THE UNIVERSITY OF TEXAS SYSTEM, priority 2014, dated 2024).

The nature of series [1]: Chemical stability in Tween 80/ethanol/water formulation (HPLC). The following applies: for First order degradation rate constant k: aqueous formulation, mean ± SD (n=3). Format: physicochemical. As for the experimental part: Gem-DHA was solubilized into an aqueous formulation that contains Tween 80 (10%, w/v) and ethanol (5.5%, v/v) (referred to as the Tween 80/ethanol/water formulation) to evaluate its in vivo activity. The stability of Gem-DHA in this formulation was evaluated in crimp-sealed amber glass vials under nitrogen atmosphere. Briefly, 150 μl of the Gem-DHA aqueous solution at a concentration of about 7 mg/ml were added to the amber glass vials under nitrogen atmosphere, and the vials were crimp-sealed with aluminum seals over rubber lids. At predetermined time intervals, 10 μl of the solution were diluted with 90 μl of methanol and mixed, and the concentration was measured using HPLC. Stability tests were carried out at room temperature (˜22° C.) or 4° C. in triplicates. Vitamin E was added in the formulation to a final concentration of 0.01% or 0.04% (v/v) to evaluate the effect of vitamin E on the chemical stability of Gem-DHA.
The degradation was slower at 4° C. […] Indeed, it was reported that a higher concentration of vitamin E may not necessarily have a higher anti-oxidative activity, as higher concentrations may sometimes lead to opposite effects (Owen S C. In: Rowe R C, Sheskey P J, Owen S C Eds, Handbook of Pharmaceutical Excipients. London, Pharmaceutical Press, 2006; 32-35).
To study the effect of temperature on the chemical stability of Gem-DHA, the Gem-DHA formulation in crimp-sealed vials under nitrogen was stored in room temperature, 37° C., or 60° C., protected from light. Sampling and analyses were carried out at pre-determined time points as described above. The first order degradation reaction equation was used to calculate the values of the reaction rate (k) at different temperatures (Table 2). An Arrhenius plot was constructed by plotting the In k values vs. 1/T to calculate the activation energy (Ea, in kcal/mol). The activation energy of the chemical reaction was calculated to be 12.86 kcal/mol (FIG. 2C).

The nature of series [2]: Aqueous solubility by the indirect method (IPM/water partitioning, Beall et al.). Format: physicochemical. As for the experimental part: The aqueous solubility of Gem-DHA was determined following an indirect method according to Beall et al. with minimal modifications (Beall HD et al. International Journal of Pharmaceutics. 1993, 93, 37-47). Briefly, an excess amount of Gem-DHA was added to 100 μl of IPM in a crimp-sealed amber glass vials under nitrogen and was stirred vigorously at room temperature for 24 h, protected from light. After the stirring was stopped, the mixture was left to stand for an additional 24 h for equilibration. The content of the vial was centrifuged (14,000 rpm, 10 min) and the supernatant was transferred into a different tube. Aliquots of the saturated IPM solution were used to measure the Gem-DHA concentration before partitioning (A1) using HPLC (after proper dilution with methanol). Then, water was added to the IPM saturated solution in a volume ratio of 10:1. The two phases were mixed by vortexing for 5 min, left to stand for 15 min, then centrifuged (14,000 rpm, 15 min) to collect the IPM layer. Gem-DHA concentration in the IPM layer (A2) was again measured using HPLC after partitioning. The following equation was used to calculate the partition coefficient (KIPM/water) (Beall HD et al. International Journal of Pharmaceutics. 1993, 93, 37-47):
[formula] where Vwater is the volume of the water phase and VIPM is the volume of IPM. The value of (Vwater/VIPM) was 10.
The aqueous solubility (Sw) of Gem-DHA was determined using the following equation (Id.):
[formula] where SIPM is the solubility of Gem-DHA in IPM.
In order to validate the method of Beall et al. (Id.), the aqueous solubility of 4-(N)-stearoyl gemcitabine, another lipophilic gemcitabine conjugate (Sloat BR et al. Int J Pharm. 2011, 409(1-2), 278-288), which is stable in water, was measured directly (i.e., direct method) or using the indirect method reported by Beall et al. (Beall HD et al. International Journal of Pharmaceutics. 1993, 93, 37-47).

The test system of a further series is TC-1 tumors. Nature of the series: Antitumor activity against s.c. TC-1 tumors in C57BL/6 mice. The following applies: i.p., 50 mg/kg, every 3-4 days, 4 times. The format is in vivo. The protocol: Therefore, the in vivo antitumor activity of Gem-DHA against TC-1 tumor cells was also evaluated. In the mouse model with TC-1 tumors, 5×10^5 cells were s.c. injected in the right flank of female C57BL/6 mice (Charles River, 6-8 weeks). Eight days later, mice were randomized into 3 groups (n=5-6) and i.p. injected with Gem-DHA (50 mg/kg, −0.087 mmole/kg), gemcitabine HCl (26.1 mg/kg, ˜0.087 mmole/kg), or left untreated as a control. Treatments were repeated every 3-4 days for a total of 4 times. Tumor growth was monitored and tumor volume was calculated as mentioned above. […] Shown in FIG. 14B are the body weights of TC-1 tumor-bearing mice after they were treated with multiple doses of Gem-DHA.

A short description of series [3]: Octanol-water (PBS 7.4) partition coefficient. Format: physicochemical. The following applies: in octanol under the test conditions. The protocol:
The octanol-water partition coefficient of Gem-DHA was determined using a previously reported method with minor modifications (Hsu CH et al. Pharm Res. 2003, 20(6), 918-925). Briefly, octanol and PBS (7.4, 0.01 M) were mutually saturated for 24 h. Gem-DHA was dissolved in octanol (0.4 mg/ml, PBS-saturated) and 10 μl of the solution were withdrawn and diluted with methanol to measure Gem-DHA concentration using HPLC (C1) PBS was added to octanol at a volume ratio (VPBS/Voct) of 20:1 into a sealed vial under nitrogen, and the mixture was agitated vigorously at room temperature using a horizontal orbital shaker at 250 rpm (Max Q 2000, Thermo Scientific, Waltham, Mass.) while protected from light. After 5 h, the mixture was centrifuged (14,000 rpm, 15 min) and the concentration of Gem-DHA in the octanol layer was determined using HPLC (C2). Partition coefficient (Koctiwater) was calculated using the following equation: […]
The partition coefficient (octanol/PBS 7.4) of Gem-DHA was also measured using an indirect method by determining the concentration of the drug in octanol, before and after partitioning.

For `CC/C=C\C/C=C\C/C=C\C/C=C\C/C=C\C/C=C\CCC(=O)Nc1ccn(C2OC(CO)C(O)C2(F)F)c(=O)n1` (centres unmarked) [Gem-DHA, 4-(N)-Docosahexaenoyl Difluorodeoxycytidine], the “Degradation in Tween 80/ethanol/water formulation” value is listed as “slower” in series [1] (4° C., compared with room temperature); “found to degrade at room temperature” in series [1] (room temperature (~22° C.)); “slower in the presence of vitamin E” in series [1] (with vitamin E 0.01% or 0.04%, 0.01% more effective than 0.04%). Besides, in series [1] (Arrhenius plot of ln k vs 1/T), the “Activation energy (Ea) of the degradation” value was 12.86 kcal/mol. The figures for the “First order degradation rate constant k” value in series [1] (37° C.), in series [1] (60° C.) and in series [1] (room temperature (~22° C.)) were 0.042 ± 0.005 h⁻¹, 0.106 ± 0.009 h⁻¹ and 0.018 ± 0.001 h⁻¹, respectively. The “KIPM/water (partition coefficient)” value in series [2] is 194.72 ± 111.3. Also, the “Stability in IPM, remaining” value in series [2] (buffer, 48 h) is listed as more than 92%. Also, the “Control of growth of s.c. TC-1 tumors” value in the series with TC-1 tumors is “more effective than a molar equivalent dose of gemcitabine HCl”. Further, in series [3], the “Time stable in octanol” value is on record as “at least 18 h”.
